Tests used:
IL-8 [1] = assay: IL-8 release by PHA-stimulated PBL (ELISA); format: cell-based, human; conditions: Example 4, GR-192 PBL; 15 μg/ml Cpd II, 10 μM Dex; PHA 2 μg/ml, 96 hours; FIG. 8
Method: Whole blood was drawn from GR-192, a normal human volunteer, and processed as described in Example 1 to give heat-inactivated serum and PBL. […] After this incubation, PHA was added to give a final concentration of 2 μg/ml, and the cells were incubated for an additional 96 hours at 37° C., 5% CO2. All cultures were performed in triplicate. Cells were then removed by centrifugation at 1000 rpm for 10 minutes, and the culture medium collected.
To perform the ELISA, matched pairs of antibodies against human IL-8 were purchased from Pierce Biotechnology and Biosource, respectively. ELISA strip well plates were coated with 2 μg/ml of antibody to IL-8 (in phosphate-buffered saline (PBS)) overnight at room temperature. The plates were then blocked using a 4% BSA solution in PBS for one hour, followed by the addition of 50 μl of experimental culture medium per well in duplicate. The plates were incubated at room temperature for one hour and then washed using 50 mM Tris pH 8.0 with 0.1% Tween 20. Then, solutions of 100 ng/ml biotinylated second antibody to IL-8 were made in blocking buffer, and 100 μl were added per well. The plates were incubated for 1 hour and washed again. […] OD was determined using microplate reader with a 450 nm filter.

IL-8 [2] = assay: IL-8 production by CD3/CD28-activated TRiPS cell line (ELISA); format: cell-based, human; conditions: 15 μg/ml; CD3/CD28 Dynabeads, 24 hours
IL-8 [3] = assay: IL-8 release from LPS-stimulated THP-1 monocytes (ELISA); format: cell-based; conditions: THP-1, LPS 200 ng/ml; Cpd II 15 μg/ml, Dex 10 μM
Method: (§1) THP-1 is a monocyte cell line obtained from American Type Culture Collection (ATCC) (catalog no. TIB-202). […] After 1 hour, lipopolysaccharide (LPS) (obtained from Sigma) was added to the cultures to give a final concentration of 200 ng/ml, and the cells were then incubated for an additional 4 hours or for an additional 24 hours. After the incubation, the cells were centrifuged, and the supernatants were collected. The concentrations of IL-8 and TNFα in the supernatants were determined by ELISA.
The concentrations of IL-8 in the supernatants were determined by ELISA performed as described in Example 4.

TNFα = TNFα release from LPS-stimulated THP-1 monocytes (ELISA); format: cell-based; conditions: THP-1, LPS 200 ng/ml; Cpd II 15 μg/ml, Dex 10 μM
Method: as §1
The TNFα ELISA was performed as described in Example 2.

HUVECs = assay: HUVEC proliferation (Promega cell titer assay); format: cell-based, human; conditions: 48 hours; for Mean OD at 530 nm: HUVECs
Method: Passage 4 HUVECs, lot number 9713, in either EGM-2 plus 50 ng/ml vascular endothelial growth factor (VEGF) (obtained from Sigma) or in EGM-2 complete medium (containing 2% FCS, hydrocortisone, human fibroblast growth factor B, VEGF, recombinant insulin-like growth factor-1, ascorbate, human […], gentamycin and heparin) (obtained from Cambrex) were put into the wells of a 96-well tissue culture plate at 5,000 cells/well. The following additives were added to the cells: water (vehicle control); 5 μg/ml of the compound of formula II (Cpd II); 15 μg/ml Cpd II; or 30 μg/ml of Cpd II. After 48 hours of culture at 37° C. and 5% CO2, cell proliferation was evaluated by the Promega cell titer assay as described in Example 1, except that the plates were incubated for only 2 hours after addition of the Promega cell titer reagent.

NFκB = assay: Activated NFκB in TNFα- or VEGF-treated HIAECs (TransAM assay); format: cell-based; conditions: Homo sapiens, VEGF 10 ng/ml, Cpd II 15 μg/ml, read-out: Percent Inhibition (NFκB)
Method: Passage 8 (human iliac artery endothelial cells (HIAECs) (obtained from ATCC; catalog no. CC-2545) were grown to confluence in 25 cm^2 flasks in EGM-2 medium. Eighteen hours prior to the experiment, the medium was replaced with EGM-2 medium containing 0.1% FCS plus heparin, GA1000 (gentamycin) and bovine pituitary extract (all from Cambrex) to place the cells in a resting state. To perform the experiment the medium was aspirated from the flasks, and the following additives were added to the flasks in fresh medium (total volume of 5 ml/flask): 15 μg/ml of the compound of formula II (Cpd II) or 10 μM LY 294002. The flasks were incubated 2 hours at 37° C., 5% CO2. After this incubation, VEGF or TNFα was added to give a final concentration 10 ng/ml, and the flasks were incubated for an additional 30 minutes. Then, the amount of NFκB was determined using a TransAM™ NFκB p65/NFκB p50 Transcription Factor Assay Kit and a Nuclear Extract Kit from Active Motif North America, Carlsbad, Calif., as described in Example 12.

Ras = Ras activation pulldown assay in TRiPS cells; format: cell-based, human; conditions: 15 μg/ml
Method: (§2) Day 10 TRiPS cells, 1×10^6, were incubated with 15 μg/ml of the compound of formula II (Cpd II) for 1 hour at 37° C. Then, the cells were incubated with CD3/CD28 beads (1 μl per 100,000 cells) (obtained from Dynal) for 10 minutes at 37° C. The cells were then lysed with a mild buffer (supplied with Pierce EZ-Detect activation kit described below) to produce cell extracts. Protein concentrations of the resulting extracts were determined by bicinchoninic acid (BCA) assay (Pierce) and placed on ice for immediate use.
(§3) Pulldown assays were performed using Pierce EZ-Detect activation kits according to the manufacturer's instructions utilizing GST-RAF-1-RBD and GST-RalGDS-RBD for Ras and RAP-1 respectively. Briefly, 400 μg total protein from each extract was combined with recombinant protein and glutathione resin and incubated at 4° C. for one hour with gentle shaking The resin was then washed to remove unbound protein and the activated Ras and RAP-1 proteins were removed by boiling in the presence of SDS-PAGE loading dye containing reducing agent. Ras and RAP-1 western blots were performed to visualize the proteins using antibodies supplied with the kit. Densitometry of the X-ray films was done by scanning and computer analysis.

RAP-1 = RAP-1 activation pulldown assay in TRiPS cells; format: cell-based, human; conditions: 15 μg/ml
Method: as §2, §3

## COC(=O)C(c1ccc(-c2ccccc2)cc1)C1CCCCN1 (centres unmarked) [Cpd II]
IL-8 [1]
  IL-8 release induced by PHA: significantly inhibited IL-8 release
IL-8 [2]
  IL-8 production by the TRiPS cell line: no effect
IL-8 [3]
  release of IL-8 from the LPS-stimulated monocytes: significantly inhibited the release of IL-8
TNFα
  release of TNFα from the LPS-stimulated monocytes: significantly inhibited the release of TNFα
HUVECs; HUVECs, 5, 15, 30 μg/ml
  number of cells detected in the wells: reduced the number of cells detected in the wells in a dose-dependent manner
HUVECs; EGM-2 + VEGF, 5 μg/ml, vehicle 0.224 ± 0.011
  Mean OD at 530 nm: 0.189 ± 0.014
HUVECs; EGM-2 + VEGF, 15 μg/ml, vehicle 0.224 ± 0.011
  Mean OD at 530 nm: 0.132 ± 0.022
HUVECs; EGM-2 + VEGF, 30 μg/ml, vehicle 0.224 ± 0.011
  Mean OD at 530 nm: 0.046 ± 0.012
HUVECs; EGM-2 + growth factors, 5 μg/ml, vehicle 0.299 ± 0.011
  Mean OD at 530 nm: 0.271 ± 0.022
HUVECs; EGM-2 + growth factors, 15 μg/ml, vehicle 0.299 ± 0.011
  Mean OD at 530 nm: 0.239 ± 0.019
HUVECs; EGM-2 + growth factors, 30 μg/ml, vehicle 0.299 ± 0.011
  Mean OD at 530 nm: 0.066 ± 0.003
NFκB
  inhibition at 15 µg/mL: 70%
Ras
  inhibition of Ras protein: very strong inhibition of Ras protein
RAP-1
  inhibition of RAP-1: appeared to inhibit RAP-1

Reference: patent US8076485B2, “Methylphenidate derivatives and uses of them” (priority 2005, dated 2011)
